From patent US9612240B2, “Biomimetic chemical sensors using nanoelectronic readout of olfactory receptors” (The Trustees Of The University Of Pennsylvania, priority 2010, dated 2017)
“And” between values parts separate entries of the source, which are not always exact repeats. Equal entries are not always repeated. “Also recorded” adds a separate entry of the source. Where two headings read alike, the source gives them in different places.

Assays:
mOR203-1 [1] = conditions: mOR203-1 expressed in HEK cells; cited from earlier work
mOR256-17 [2] = molecular target: T1, mOR256-17 (Mus musculus, UniProt P23275); conditions: cited from earlier work
T1 sequence (P23275 1-312): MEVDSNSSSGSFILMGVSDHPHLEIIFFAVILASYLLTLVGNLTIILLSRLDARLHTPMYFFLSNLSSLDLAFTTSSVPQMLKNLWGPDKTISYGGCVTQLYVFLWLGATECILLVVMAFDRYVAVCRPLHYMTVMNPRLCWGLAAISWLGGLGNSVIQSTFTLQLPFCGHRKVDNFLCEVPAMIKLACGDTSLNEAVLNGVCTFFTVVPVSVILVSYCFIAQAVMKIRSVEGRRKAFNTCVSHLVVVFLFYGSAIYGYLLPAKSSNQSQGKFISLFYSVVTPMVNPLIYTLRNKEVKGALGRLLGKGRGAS

mOR203-1 [3] = assay: Vapor response of mOR-functionalized carbon nanotube transistor; conditions: for NT device response: FIG. 12A
mOR256-17 [4] = molecular target: T1, mOR256-17; assay: Vapor response of mOR-functionalized carbon nanotube transistor, high-speed data acquisition; format: binding; set-up: made in house; host or cells: Sf9 insect cells (Bac-to-Bac, pFastBac HT, Invitrogen); conditions: cyclohexanone 2250 ppm, mOR 256-17 in nanodiscs
[5] = tested on: mouse olfactory receptor proteins (mORs); assay: Vapor response of mOR-functionalized NT devices, mOR not specified; format: binding; conditions: all three mORs
mOR256-17 [6] = molecular target: T1, mOR256-17; assay: Xenopus oocyte expression with robotic electrophysiology; conditions: mOR 256-17
mOR174-9 = molecular target: T2, mOR174-9 (Mus musculus, UniProt Q920P2); assay: Vapor response of mOR-functionalized carbon nanotube transistor
T2 sequence (Q920P2 1-313): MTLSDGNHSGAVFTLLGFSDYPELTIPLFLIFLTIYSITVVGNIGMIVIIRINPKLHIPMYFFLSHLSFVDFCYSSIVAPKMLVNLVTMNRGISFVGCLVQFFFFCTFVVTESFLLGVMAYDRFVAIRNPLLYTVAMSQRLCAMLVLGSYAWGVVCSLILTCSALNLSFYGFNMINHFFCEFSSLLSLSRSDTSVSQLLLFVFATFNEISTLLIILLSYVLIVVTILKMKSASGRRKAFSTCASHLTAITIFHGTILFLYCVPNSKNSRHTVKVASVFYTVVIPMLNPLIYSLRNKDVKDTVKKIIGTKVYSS

[7] = Control vapor response of bare nanotube devices and devices with Ni-NTA and empty digitonin micelles; conditions: bare NT transistors and devices treated with Ni-NTA and empty digitonin micelles
[8] = mOR203-1 in digitonin micelles, single sensor, FIG. 4

## CCCCCC(C)=O [2-heptanone]
mOR203-1 [1]
  HEK data response: strong response
mOR256-17 [2]
  response of mOR256-17 according to published reports: not
mOR203-1 [3]; mOR 203-1, surfactant stabilized and nanodisc stabilized
  NT device response with both packaging methods: expected response
mOR203-1 [3]; mOR203-1 in digitonin micelles
  NT device response: strong response
mOR203-1 [3]; [8]
  change in conductance: negative changes in conductance

## CC(=O)c1ccccc1 [acetophenone]
mOR203-1 [1]
  HEK data response: lack of response
mOR203-1 [3]; mOR203-1 in digitonin micelles
  NT device response: lack of response

## O=C1CCCCC1 [cyclohexanone]
mOR256-17 [4]
  response time constant, first of double exponential fit (FIG. 11D): 2.06 ± 0.01 s
  response time constant, second of double exponential fit (FIG. 11D): 25.51 ± 0.04 s
  sensing response time constant, first of double exponential fit (FIG. 3): 9.1 s and 9.08 ± 0.04 s
  sensing response time constant, second of double exponential fit (FIG. 3): 41.2 s and 41.2 ± 0.4 s
[5]
  response of the inventive devices: strong response
mOR256-17 [2]
  response of mOR256-17 according to published reports: responds
mOR256-17 [6]
  oocyte measurement response, in words: show a response
mOR174-9; mOR 174-9, surfactant stabilized and nanodisc stabilized
  NT device response shared by both packaging methods: response shared between the two packaging methods
[7]
  response of control devices without mOR: small response

## C=CCc1ccc(O)c(OC)c1 [eugenol]
mOR203-1 [3]; [8]
  change in conductance: positive changes in conductance
mOR174-9
  NT device response shared by both packaging methods: expected response
  sensing response (change in device current): large positive responses; also recorded: large positive sensing response
[7]
  response of control devices without mOR: no change in conductance

## CCCCCCC=O [heptanal]
mOR203-1 [1]
  HEK data response: lack of response
mOR256-17 [2]
  response of mOR256-17 according to published reports: not
mOR203-1 [3]; mOR203-1 in digitonin micelles
  NT device response: lack of response

## COC(=O)c1ccccc1 [methyl benzoate]
mOR203-1 [3]
  change in conductance: no change in conductance

## CCCCCOC(C)=O [n-amyl acetate]
mOR203-1 [3]; [8]
  change in conductance: negative changes in conductance
